Article PMC7665192, “A natriuretic peptide from Arabidopsis thaliana (AtPNP-A) can modulate catalase 2 activity” (Scientific Reports, 2020)
Positions of bridges follow the written chain, without caps; N, C: chain ends. Residues, ends and D or L forms follow the SMILES beside them. *: point of attachment. Biotin = O=C1N[C@H]2[C@H](CS[C@H]2CCCCC(=O)*)N1

Columns and labels:
[1] = test system: mitogen-activated protein kinase (MAPK) pathway; assay: MAPK pathway activation; settings: data not shown
[2] = test system: A. thaliana (Col-0) mesophyll cell protoplasts; assay: Mesophyll cell protoplast swelling (volume); type: cell-based, Arabidopsis thaliana; settings: 100 nM peptide or 1 μg mL^−1 rAtPNP-A, 0.4 M mannitol, 20 min, room temperature, n = 50, P < 0.0001
Excerpt: Peptides containing amino acid sequence of the active region of AtPNP-A and corresponding scrambled peptides, having the same amino acid composition but in a randomized order (Fig. 1a), with or without C-terminal biotin tag, were synthesized by GenScript (Piscataway, USA) at the purity level > 95% verified with HPLC and their biological activity was verified as described previously.
Figure 1 Biologically active peptide containing the active region of AtPNP-A protein binds to CAT2. (a) Domain organization of AtPNP-A and the amino acid sequences of C-terminally biotinylated peptides used in affinity chromatography-based experiments—a peptide containing the active site of AtPNP-A (indicated as pAtPNP-A) or the corresponding scrambled peptide (indicated as pScr). Cysteine residues forming a disulfide bond, characteristic to natriuretic peptide (NP)-like molecules, are underlined. SP, signal peptide. (b) Assaying biological activity of the AtPNP-A peptide (pAtPNP-A) and purified recombinant protein (rAtPNP-A). […] In each treatment, 50 randomly selected protoplasts with diameter > 20 µm were included in quantitative analysis (scale bar = 20 µm). Protoplast volume was measured and the data obtained from an exemplar experiment are plotted. […]

CAT2 recombinant (rCAT2) = assay: SPR, rCAT2 immobilized on NTA chip; type: binding, Arabidopsis thaliana; settings: His-tagged rCAT2 immobilized at app. 4,500 RU, analytes at the same concentration, 20 °C
Experimental: N-terminally 6xHis-tagged AtPNP-A and CAT2 proteins were expressed in BL21 (DE3) One Shot E. coli cells (Life Technologies), purified by affinity chromatography with Ni–NTA beads (Qiagen) and HisTrap HP column (GE Healthcare Lifesciences) as described in[21]. The purity of preparations was verified on 12.5% SDS-PAGE, stained with Coomassie Brilliant Blue (Bio-Rad). Protein identities were confirmed in MS analysis, and protein concentration was determined according to the method of Bradford using BSA as a standard.
SPR experiments were performed at 20 °C on Biacore T100 instrument operated using Biacore T100 control software (version 2.0.2, GE Healthcare Lifesciences) using Series S CM5 or NTA sensor chips as described in[21]. […]
Figure 2 AtPNP-A directly interacts with Arabidopsis CAT2 and bovine liver CAT in vitro. […] The models were analyzed and visualized using UCSF Chimera (version 1.10.2; https://www.cgl.ucsf.edu/chimera/)[55]. […]

CAT2 = assay: Protein-peptide cross-linking, affinity-based isolation and LC–MS/MS; type: binding, Arabidopsis thaliana; settings: biotinylated pAtPNP-A, cross-linking in A. thaliana mesophyll cell protoplasts; data set published in ref 44
Experimental: Cross-linking experiments followed by affinity-based isolation and LC-MS/MS identification of […] interactors were performed on A. thaliana (Col-0) wild type (WT) mesophyll cell protoplasts (MCPs) as described in[44].

bovine CAT = assay: Isothermal titration calorimetry (ITC); type: binding; settings: 100 μM pAtPNP-A as titrant, PBS pH 7.4, 25 °C, 30 injections
Experimental: ITC experiments were undertaken using MicroCal iTC200 (Malvern Panalytical) calorimeter. The titrations were conducted at 25 °C in PBS buffer at pH 7.4, with 100 μM pAtPNP-A used as a titrant. Total number of injections was set at 30, reference power was 11 μcal s^−1, initial delay was 60 s, and stirring speed was 750 rpm.

cGMP = settings: cited from earlier work
Excerpt: Similarly, identification of novel receptors targeted by an increasing number of peptidic plant hormones discovered in the last few decades[8],[9] is anticipated. One of those, the plant natriuretic peptides (PNPs), are a group of systemically mobile signals[10] that have a role in the maintenance of salt and water balance[11],[12]. An A. thaliana PNP, termed AtPNP-A (At2g18660; Q9ZV52), has been implicated in several physiological processes ranging from the regulation of stomatal aperture, osmoticum-dependent volume changes[13],[14] and modulation of developmental stage- and tissue-specif ... || A PNP_CAT interaction in plant responses to infecting pathogens is not surprising. CATs commonly function to down-regulate ROS during ABA-induced stomatal closure, and ABA-induced stomatal closure can be inhibited by removal of H2O2 via CAT2[73],[74]. […] Therefore, it is tempting to speculate that AtPNP-A modulates the effect of ABA on stomatal aperture through the interaction w ...

P. syringae = test system: P. syringae; design: method as in PMID 32409317, PMID 28401640; settings: cited from earlier work

Compound | Activation of MAPK pathway [1] | Protoplast swelling response (volume) [2] | SPR binding response to rCAT2 (CAT2 recombinant (rCAT2)) | Identification of CAT2 by LC–MS/MS (CAT2) | ITC: conformational changes on binding (bovine CAT) | Elevation of cGMP (cGMP) | Role in response to P. syringae infection (P. syringae)
CC(C)C[C@@H]1NC(=O)[C@H](CC(N)=O)NC(=O)[C@H](CC(N)=O)NC(=O)[C@H](CCCCN)NC(=O)[C@H](C(C)C)NC(=O)CNC(=O)[C@H](C(C)C)NC(=O)[C@H](C(C)C)NC(=O)[C@H](CC(C)C)NC(=O)[C@H]([C@@H](C)O)NC(=O)[C@H](CCC(=O)O)NC(=O)[C@H](CCCNC(=N)N)NC(=O)[C@H](CCC(N)=O)NC(=O)[C@H]([C@@H](C)O)NC(=O)CNC(=O)[C@H](Cc2ccc(O)cc2)NC(=O)[C@@H](NC(=O)[C@H](C)NC(=O)[C@H](CO)NC(=O)[C@H](CCCNC(=N)N)NC(=O)[C@@H](NC(=O)[C@H](Cc2ccc(O)cc2)NC(=O)[C@@H]2CCCN2)[C@@H](C)O)CSSC[C@@H](C(=O)NCC(=O)N[C@@H](CCCNC(=N)N)C(=O)N[C@@H](CCCNC(=N)N)C(=O)N[C@@H](Cc2ccc(O)cc2)C(=O)N[C@@H](CCCNC(=N)N)C(=O)N[C@H](C(=O)N[C@@H](CCCNC(=N)N)C(=O)N[C@@H](CCCCNC(=O)CCCC[C@@H]2SC[C@@H]3NC(=O)N[C@@H]32)C(=O)O)C(C)C)NC(=O)[C@H](C)NC(=O)[C@H](CCCNC(=N)N)NC(=O)CNC(=O)[C@H](CC(N)=O)NC(=O)[C@H](CCC(N)=O)NC(=O)[C@H](Cc2c[nH]c3ccccc23)NC1=O [pAtPNP-A] (H-PYTRSACYGTQRETLVVGVKNNLWQNGRACGRRYRVRK(Biotin)-OH; disulfide 7-30; N-terminus and C-terminus assumed) | does not activate mitogen-activated protein kinase (MAPK) pathway | significantly greater than the response elicited by the scrambled peptide (pScr) | significant accumulation of the biologically active analyte | CAT2 was identified by LC–MS/MS only in samples containing pAtPNP-A | significant conformational changes occurring as a result of pAtPNP-A binding to bovine CAT | – | –
AtPNP-A: An A. thaliana PNP, termed AtPNP-A (At2g18660; Q9ZV52) | – | – | – | – | – | rapid elevation of 3′,5′-cyclic guanosine monophosphate (cGMP) | protective role in the response to infection with P. syringae
